Results published in patent US11000033B2, “Ketone or oxime compound, and herbicide” (NISSAN CHEMICAL CORPORATION, priority 2014, dated 2021).

What was measured:
Assay type in all cases: in vivo
[1] = test system: Amaranthus retroflexus; experiment: Test Example 4: herbicidal effect by soil treatment (symbol N); details: for N: Amaranthus retroflexus, herbicidal effect grade: 320 g/ha
Outline: (§1)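 Seeds were sown in sterilized diluvial soil, covered with about 1.5 cm of soil, and the soil surface was sprayed with a water-diluted emulsion of the compound at a predetermined rate. Plants grew in a greenhouse at 25° C. to 30° C.; effects were scored visually 3 weeks after application.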

[2] = test system: rapeseed; experiment: Test Example 4: effect on crop by soil treatment (symbol g); details: for g: rapeseed, effect grade on crop: 320 g/ha
Outline: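 Soil-treatment setup: crop and weed seeds were spot-sown into sterilized diluvial soil, then buried beneath approximately 1.5 cm of it, and the boxes were housed in a 25–30° C. greenhouse.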

[3] = test system: Galium spurium; experiment: Test Example 5: herbicidal effect by foliage application, plastic box (symbol Q); details: 320 g/ha, 3 weeks after application
Outline: (§2)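 Greenhouse foliar test: seedlings at 14 days, grown 25° C. to 30° C. in sterilized diluvial soil; compound applied as an aqueous dilution of an emulsion; response read 3 weeks after spraying.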

[4] = test system: Abutilon theophrasti; experiment: Test Example 4: herbicidal effect by soil treatment (symbol M); details: for M: Abutilon theophrasti, herbicidal effect grade: 320 g/ha
Outline: as §1

[5] = test system: Digitaria ciliaris; experiment: Test Example 4: herbicidal effect by soil treatment (symbol F); details: for F: Digitaria ciliaris, herbicidal effect grade: 320 g/ha
Outline: as §1

[6] = test system: wheat; experiment: Test Example 5: effect on crop by foliage application, plastic box (symbol e); details: 320 g/ha, 3 weeks after application
Outline: (§3)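 In a plastic box 7 cm deep filled with sterilized diluvial soil, seeds of crops and weeds such as Digitaria ciliaris, Avena fatua and Amaranthus retroflexus are sown in spots and covered with about 1.5 cm of soil before greenhouse growth at 25–30° C.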

[7] = test system: transplanted rice plant; experiment: Test Example 1: effect on crop, application before weed generation in submerged conditions (symbol a); details: application herbicide amount 320 g/ha
Outline: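 Rice at 2.5 leaf stage transplanted into submerged soil (4 cm depth) sown with three weed species; herbicide applied before weed emergence.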

[8] = test system: Apera spica-venti; experiment: Test Example 5: herbicidal effect by foliage application, plastic box (symbol L); details: 320 g/ha, 3 weeks after application
Outline: as §2

[9] = test system: directly sowed rice plant; experiment: Test Example 3: effect on crop by foliage application, Wagner pot (symbol b); details: application herbicide amount 320 g/ha
Outline: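 Alluvial soil in a 1/10000-are Wagner pot was flooded to a water depth of 0.1–0.5 cm. Echinochloa crus-galli var. crus-galli, Leptochloa chinensis, Cyperus difformis and rice were sown into it and grown in a greenhouse at 25–30 °C.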

[10] = test system: Leptochloa chinensis; experiment: Test Example 3: herbicidal effect by foliage application, Wagner pot (symbol D); details: application herbicide amount 320 g/ha
Outline: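 Steps: fill pot with alluvial soil; add water to 0.1–0.5 cm depth; sow weed and rice seed; grow 14 days at 25–30 °C; spray diluted emulsion over the leaves; rate effect after 3 weeks.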

[11] = test system: corn; experiment: Test Example 5: effect on crop by foliage application, plastic box (symbol c); details: 320 g/ha, 3 weeks after application
Outline: as §3

[12] = test system: Monochoria vaginalis; experiment: Test Example 1: herbicidal activity, application before weed generation in submerged conditions (symbol C); details: application herbicide amount 320 g/ha
Outline: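 Application before weed emergence: an aqueous dilution of the emulsion formulation was poured onto the surface of 4 cm-deep floodwater on the day of sowing. Effect was judged after 3 weeks (greenhouse, 25–30 °C).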

[13] = test system: beet; experiment: Test Example 5: effect on crop by foliage application, plastic box (symbol f); details: 320 g/ha, 3 weeks after application
Outline: as §3

[14] = application herbicide amount 320 g/ha

Row | Structure (SMILES) | N: Amaranthus retroflexus, herbicidal effect grade [1] | g: rapeseed, effect grade on crop [2] | Q: Galium spurium, herbicidal effect (criteria 0-5) [3] | M: Abutilon theophrasti, herbicidal effect grade [4] | F: Digitaria ciliaris, herbicidal effect grade [5] | e: wheat, effect on crop (criteria 0-5) [6] | Effect grade on crop, a: transplanted rice plant [7] | L: Apera spica-venti, herbicidal effect (criteria 0-5) [8] | effect on crop b (directly sowed rice plant), grade 0-5 [9] | herbicidal effect on D (Leptochloa chinensis), grade 0-5 [10] | c: corn, effect on crop (criteria 0-5) [11] | Herbicidal effect grade, C: Monochoria vaginalis [12] | f: beet, effect on crop (criteria 0-5) [13] | also measured
1 | COC(=O)c1ccc(CON=C(C)CC2CC(O)=C(c3c(C)cc(C)cc3C)C2=O)cc1 (centres unmarked) [1-118] | 0 (Herbicidal ratio of 5% or lower (almost no effect)) | 1 (Herbicidal ratio of 5% or higher and lower than 20%) | 3 (Herbicidal ratio of 40% or higher and lower than 70%) | 0 (Herbicidal ratio of 5% or lower (almost no effect)) | 3 (Herbicidal ratio of 40% or higher and lower than 70%) | 0 (Herbicidal ratio of 5% or lower (almost no effect)) | 4 (Herbicidal ratio of 70% or higher and lower than 90%) | 3 (Herbicidal ratio of 40% or higher and lower than 70%) | 5 (Herbicidal ratio of 90% or more (almost completely withered)) | 0 (Herbicidal ratio of 5% or lower (almost no effect)) | 4 (Herbicidal ratio of 70% or higher and lower than 90%) | 2 (Herbicidal ratio of 20% or higher and lower than 40%) | 0 (Herbicidal ratio of 5% or lower (almost no effect)) | 
2 | CC(CC1CC(O)=C(c2c(C)cc(C)cc2C)C1=O)=NOCc1cccc(C(F)(F)F)c1 (centres unmarked) [1-117] | 0 (Herbicidal ratio of 5% or lower (almost no effect)) | 2 (Herbicidal ratio of 20% or higher and lower than 40%) | 0 (Herbicidal ratio of 5% or lower (almost no effect)) | 0 (Herbicidal ratio of 5% or lower (almost no effect)) | 4 (Herbicidal ratio of 70% or higher and lower than 90%) | 5 (Herbicidal ratio of 90% or more (almost completely withered)) | 5 (Herbicidal ratio of 90% or more (almost completely withered)) | 5 (Herbicidal ratio of 90% or more (almost completely withered)) | 5 (Herbicidal ratio of 90% or more (almost completely withered)) | 4 (Herbicidal ratio of 70% or higher and lower than 90%) | 3 (Herbicidal ratio of 40% or higher and lower than 70%) | 5 (Herbicidal ratio of 90% or more (almost completely withered)) | 0 (Herbicidal ratio of 5% or lower (almost no effect)) | 
3 | CC(CC1CC(O)=C(c2c(C)cc(C)cc2C)C1=O)=NOCC(C)Cl (centres unmarked) [1-121] | 0 (Herbicidal ratio of 5% or lower (almost no effect)) | 3 (Herbicidal ratio of 40% or higher and lower than 70%) | 0 (Herbicidal ratio of 5% or lower (almost no effect)) | 0 (Herbicidal ratio of 5% or lower (almost no effect)) | 5 (Herbicidal ratio of 90% or more (almost completely withered)) | 3 (Herbicidal ratio of 40% or higher and lower than 70%) | 5 (Herbicidal ratio of 90% or more (almost completely withered)) | 5 (Herbicidal ratio of 90% or more (almost completely withered)) | 5 (Herbicidal ratio of 90% or more (almost completely withered)) | 5 (Herbicidal ratio of 90% or more (almost completely withered)) | 5 (Herbicidal ratio of 90% or more (almost completely withered)) | 3 (Herbicidal ratio of 40% or higher and lower than 70%) | 0 (Herbicidal ratio of 5% or lower (almost no effect)) | 
4 | CC(CC1CC(O)=C(c2c(C)cc(C)cc2C)C1=O)=NOCc1ccccc1C(F)(F)F (centres unmarked) [1-116] | 5 (Herbicidal ratio of 90% or more (almost completely withered)) | 2 (Herbicidal ratio of 20% or higher and lower than 40%) | 1 (Herbicidal ratio of 5% or higher and lower than 20%) | 2 (Herbicidal ratio of 20% or higher and lower than 40%) | 1 (Herbicidal ratio of 5% or higher and lower than 20%) | 3 (Herbicidal ratio of 40% or higher and lower than 70%) | 3 (Herbicidal ratio of 40% or higher and lower than 70%) | 5 (Herbicidal ratio of 90% or more (almost completely withered)) | 5 (Herbicidal ratio of 90% or more (almost completely withered)) | 3 (Herbicidal ratio of 40% or higher and lower than 70%) | 5 (Herbicidal ratio of 90% or more (almost completely withered)) | 5 (Herbicidal ratio of 90% or more (almost completely withered)) | 0 (Herbicidal ratio of 5% or lower (almost no effect)) | 
5 | Cc1cc(Br)cc(C)c1C1=C(O)CC(CC(=O)C(C)C)C1=O (racemic) [10-003] |  |  |  |  |  |  |  |  |  |  |  |  |  | Herbicidal effect grade, N: Amaranthus retroflexus [1, 14]: 0 (Herbicidal ratio of 5% or lower (almost no effect)); Effect on crop grade, g: rapeseed [2, 14]: 0 (Herbicidal ratio of 5% or lower (almost no effect)); Q: Galium spurium, herbicidal effect grade [3]: 0 (Herbicidal ratio of 5% or lower (almost no effect)); Herbicidal effect grade, M: Abutilon theophrasti [4, 14]: 0 (Herbicidal ratio of 5% or lower (almost no effect)); Herbicidal effect grade, F: Digitaria ciliaris [5, 14]: 0 (Herbicidal ratio of 5% or lower (almost no effect)); e: wheat, effect on crop grade [6]: 0 (Herbicidal ratio of 5% or lower (almost no effect)); a (transplanted rice plant) effect on crop grade [7]: 3 (Herbicidal ratio of 40% or higher and lower than 70%); L: Apera spica-venti, herbicidal effect grade [8]: 3 (Herbicidal ratio of 40% or higher and lower than 70%); b (directly sowed rice plant) effect on crop grade ([9]; Table 24): 5 (Herbicidal ratio of 90% or more (almost completely withered)); D (Leptochloa chinensis) herbicidal effect grade ([10]; Table 24): 4 (Herbicidal ratio of 70% or higher and lower than 90%); c: corn, effect on crop grade [11]: 2 (Herbicidal ratio of 20% or higher and lower than 40%); C (Monochoria vaginalis) herbicidal effect grade [12]: 0 (Herbicidal ratio of 5% or lower (almost no effect)); f: beet, effect on crop grade [13]: 0 (Herbicidal ratio of 5% or lower (almost no effect))
